Reference: patent publication US20100227859A1, “TRICYCLIC COMPOUNDS AS MATRIX METALLOPROTEINASE INHIBITORS” (priority 2007, published 2010)

target: purified human MMP-12 enzyme (Homo sapiens, UniProt P39900); test: MMP-12 FRET assay; type: biochemical; settings: substrate 20 μM, room temperature
Procedure, shortened: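 Enzyme pre-incubated 30 min at room temperature with compound in 50 mM HEPES pH 7.4, 100 mM NaCl, 5 mM CaCl2, 0.005% Brij-35, 10% DMSO final. Reaction started with 20 μM MCA-Pro-Leu-Gly-Leu-Dpa(DNP)-Ala-Arg, and initial cleavage rate read over 30 min (λex 325, λem 395 nm). IC50 from slope-factor inhibition fit.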

Sequence of purified human MMP-12 enzyme (P39900 106-470): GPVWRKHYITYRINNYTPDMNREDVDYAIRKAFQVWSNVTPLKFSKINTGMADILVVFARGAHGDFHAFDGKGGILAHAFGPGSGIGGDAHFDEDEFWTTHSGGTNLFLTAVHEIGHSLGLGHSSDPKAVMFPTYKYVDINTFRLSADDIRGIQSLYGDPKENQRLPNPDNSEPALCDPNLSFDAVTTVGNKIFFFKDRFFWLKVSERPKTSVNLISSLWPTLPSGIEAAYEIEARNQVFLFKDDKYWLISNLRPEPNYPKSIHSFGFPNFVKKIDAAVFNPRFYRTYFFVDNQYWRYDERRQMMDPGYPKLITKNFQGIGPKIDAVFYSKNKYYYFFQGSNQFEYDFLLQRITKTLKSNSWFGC

SMILES | IC50 [nM]
Cc1nc(-c2ccc(C(F)(F)F)cc2)sc1-c1ccc2oc3cc(S(=O)(=O)N[C@H](C(=O)O)C(C)C)ccc3c2c1 [Compound 164, (S)-3-methyl-2-(8-(4-methyl-2-(4-(trifluoromethyl)phenyl)thiazol-5-yl)dibenzo[b,d]furan-3-sulfonamido)butanoic acid] | 12.3
CCN(CC)C(=N)c1ccc2oc3cc(S(=O)(=O)N[C@H](C(=O)O)C(C)C)ccc3c2c1 [Compound 106, (S)-2-(8-(N,N-diethylcarbamimidoyl)dibenzo[b,d]furan-3-sulfonamido)-3-methylbutanoic acid] | 400
CC(C)[C@@H](NS(=O)(=O)c1ccc2oc3cc(-c4nc5ccccc5s4)ccc3c2c1)C(=O)O [Compound 293, (R)-2-(7-(benzo[d]thiazol-2-yl)dibenzo[b,d]furan-2-sulfonamido)-3-methylbutanoic acid] | 21
CC(C)[C@H](NS(=O)(=O)c1ccc2c(c1)sc1ccc(-c3ccc(Cl)nc3)cc12)C(=O)O [Compound 63, (S)-2-(8-(6-chloropyridin-3-yl)dibenzo[b,d]thiophene-3-sulfonamido)-3-methylbutanoic acid] | 33
CC(C)[C@H](NS(=O)(=O)c1ccc2c(c1)oc1ccc(-c3nn[nH]n3)cc12)C(=O)O [Compound 130, (S)-2-(8-(2H-tetrazol-5-yl)dibenzo[b,d]furan-3-sulfonamido)-3-methylbutanoic acid] | 1900
CC(C)[C@H](NS(=O)(=O)c1ccc2c(c1)oc1ccc(-c3ccc4ncccc4c3)cc12)C(=O)O [Compound 14, (S)-3-methyl-2-(8-(quinolin-6-yl)dibenzo[b,d]furan-3-sulfonamido)butanoic acid] | < 1.5
CC(C)[C@H](NS(=O)(=O)c1ccc2c(c1)oc1ccc(-c3ccncc3)cc12)C(=O)O [Compound 16, (S)-3-methyl-2-(8-(pyridin-4-yl)dibenzo[b,d]furan-3-sulfonamido)butanoic acid] | < 1.5
CC(C)[C@H](NS(=O)(=O)c1ccc2c(c1)sc1ccc(-c3cccnc3)cc12)C(=O)O [Compound 11, (S)-3-methyl-2-(8-(pyridin-3-yl)dibenzo[b,d]thiophene-3-sulfonamido)butanoic acid] | 15.6
CC(C)[C@H](NS(=O)(=O)c1ccc2c(c1)oc1ccc(-c3ccsc3Cl)cc12)C(=O)O [Compound 34, (S)-2-(8-(2-chlorothiophen-3-yl)dibenzo[b,d]furan-3-sulfonamido)-3-methylbutanoic acid] | < 1.5

Other lines, results leading:

IC50 [nM] | SMILES
7.3 | CC(C)[C@H](NS(=O)(=O)c1ccc2c(c1)oc1ccc(-c3ccc4oc5ccccc5c4c3)cc12)C(=O)O [Compound 195, (S)-2-(2,2′-bidibenzo[b,d]furan-7-sulfonamido)-3-methylbutanoic acid]
3.1 | CC(C)[C@@H](NS(=O)(=O)c1ccc2oc3cc(-c4ccc[nH]4)ccc3c2c1)C(=O)O [Compound 116, (R)-2-(7-(1H-pyrrol-2-yl)dibenzo[b,d]furan-2-sulfonamido)-3-methylbutanoic acid]
483 | CC(C)[C@H](NS(=O)(=O)c1ccc2c(c1)sc1ccc(-c3ccc(-c4ccc(-c5ccc(Cl)nc5)nc4)nc3)cc12)C(=O)O [Compound 54, (S)-2-[8-(6″-Chloro-[2,3′;6′,3″]terpyridin-5-yl)-dibenzothiophene-3-sulfonylamino]-3-methyl-butanoic acid]
9.5 | CC(C)[C@@H](NS(=O)(=O)c1ccc2oc3cc(-c4nc5ccccc5o4)ccc3c2c1)C(=O)O [Compound 294, (R)-2-(7-(benzo[d]oxazol-2-yl)dibenzo[b,d]furan-2-sulfonamido)-3-methylbutanoic acid]
< 1.5 | COc1ncc(-c2ccc3oc4cc(S(=O)(=O)N[C@H](C(=O)O)C(C)C)ccc4c3c2)cn1 [Compound 153, (S)-2-(8-(2-methoxypyrimidin-5-yl)dibenzo[b,d]furan-3-sulfonamido)-3-methylbutanoic acid]
